Test results: the NIST ThermoML archive (doi:10.1016/j.tca.2015.08.013)
Numbers after ± are expanded uncertainties.

Conditions: for vapor or sublimation pressure / mass density / kinematic viscosity / speed of sound: Liquid; for vapor or sublimation pressure: Ebulliometric method (Recirculating still); for surface tension liquid-gas: Drop volume; for mass density: Vibrating tube method; for kinematic viscosity / speed of sound: 101.33 kPa; for kinematic viscosity: Capillary tube (Ostwald / Ubbelohde) method; for speed of sound: Sing-around technique in a fixed-path interferometer

Cc1ccco1 [2-methylfuran]
Conditions	kinematic viscosity [m2/s]	speed of sound [m/s]	surface tension liquid-gas [mN/m]	vapor or sublimation pressure [kPa]
308.17 K	–	–	–	35.04 ± 0.2
310.12 K	–	–	–	37.92 ± 0.21
310.65 K	3.92e-07 ± 8.5e-09	1106.8 ± 1.5	22.71 ± 0.21	–
312.06 K	–	–	–	41.03 ± 0.21
313.15 K	3.83e-07 ± 8.3e-09	1095.6 ± 1.5	22.37 ± 0.21	–
314.02 K	–	–	–	44.3 ± 0.21
315.65 K	3.74e-07 ± 8.1e-09	1084.4 ± 1.5	22.08 ± 0.21	–
316.08 K	–	–	–	47.94 ± 0.21
317.22 K	–	–	–	50.08 ± 0.21
318.15 K	3.66e-07 ± 8e-09	1073.3 ± 1.5	21.69 ± 0.21	–
319.29 K	–	–	–	54.16 ± 0.21
320.65 K	3.58e-07 ± 7.8e-09	1062.1 ± 1.5	21.35 ± 0.2	–
321.15 K	–	–	–	58.19 ± 0.21
323.05 K	–	–	–	62.23 ± 0.21
323.15 K	3.5e-07 ± 7.6e-09	1051 ± 1.5	21 ± 0.2	–
325.57 K	–	–	–	68.18 ± 0.22
325.65 K	3.42e-07 ± 7.5e-09	1039.9 ± 1.5	20.7 ± 0.2	–
327.23 K	–	–	–	72.31 ± 0.22
328.15 K	3.36e-07 ± 7.3e-09	1028.8 ± 1.5	20.46 ± 0.2	–
329.07 K	–	–	–	77.17 ± 0.22
330.65 K	3.28e-07 ± 7.1e-09	1017.7 ± 1.5	20.08 ± 0.2	–
331.13 K	–	–	–	82.86 ± 0.22
333.15 K	3.2e-07 ± 7e-09	1006.7 ± 1.5	19.74 ± 0.2	–
333.27 K	–	–	–	89.15 ± 0.23
334.25 K	–	–	–	92.22 ± 0.23
335.65 K	3.13e-07 ± 6.8e-09	995.68 ± 1.5	19.41 ± 0.19	–
336.39 K	–	–	–	99.03 ± 0.23
337.09 K	–	–	–	101.33 ± 0.23
338.15 K	3.07e-07 ± 6.7e-09	984.65 ± 1.5	19.09 ± 0.19	–

Conditions	mass density [kg/m3]
310.65 K, 99 kPa	894.953 ± 0.23
313.15 K, 99 kPa	891.871 ± 0.23
313.15 K, 100 kPa	891.87 ± 0.29
313.15 K, 2500 kPa	894.72 ± 0.3
313.15 K, 5000 kPa	897.62 ± 0.3
313.15 K, 7500 kPa	900.57 ± 0.31
313.15 K, 10000 kPa	903.14 ± 0.32
313.15 K, 20000 kPa	913.34 ± 0.34
313.15 K, 30000 kPa	922.45 ± 0.35
313.15 K, 40000 kPa	930.83 ± 0.37
313.15 K, 50000 kPa	938.5 ± 0.38
313.15 K, 60000 kPa	945.71 ± 0.38
315.65 K, 99 kPa	888.779 ± 0.23
318.15 K, 99 kPa	885.676 ± 0.23
318.15 K, 100 kPa	885.68 ± 0.29
318.15 K, 2500 kPa	888.8 ± 0.3
318.15 K, 5000 kPa	891.79 ± 0.31
318.15 K, 7500 kPa	894.77 ± 0.31
318.15 K, 10000 kPa	897.58 ± 0.32
318.15 K, 20000 kPa	907.94 ± 0.34
318.15 K, 30000 kPa	917.27 ± 0.36
318.15 K, 40000 kPa	925.75 ± 0.37
318.15 K, 50000 kPa	933.61 ± 0.38
318.15 K, 60000 kPa	941.15 ± 0.39
320.65 K, 99 kPa	882.558 ± 0.23
323.15 K, 99 kPa	879.425 ± 0.23
323.15 K, 100 kPa	879.43 ± 0.29
323.15 K, 2500 kPa	882.68 ± 0.3
323.15 K, 5000 kPa	885.8 ± 0.31
323.15 K, 7500 kPa	888.76 ± 0.31
323.15 K, 10000 kPa	891.8 ± 0.32
323.15 K, 20000 kPa	902.39 ± 0.34
323.15 K, 30000 kPa	911.96 ± 0.36
323.15 K, 40000 kPa	920.89 ± 0.38
323.15 K, 50000 kPa	929.01 ± 0.39
323.15 K, 60000 kPa	936.53 ± 0.4
325.65 K, 99 kPa	876.278 ± 0.23
328.15 K, 99 kPa	873.118 ± 0.23
328.15 K, 100 kPa	873.12 ± 0.29
328.15 K, 2500 kPa	876.29 ± 0.3
328.15 K, 5000 kPa	879.75 ± 0.31
328.15 K, 7500 kPa	882.71 ± 0.31
328.15 K, 10000 kPa	885.92 ± 0.32
328.15 K, 20000 kPa	896.99 ± 0.35
328.15 K, 30000 kPa	906.92 ± 0.37
328.15 K, 40000 kPa	915.88 ± 0.39
328.15 K, 50000 kPa	924.13 ± 0.4
328.15 K, 60000 kPa	931.92 ± 0.41
330.65 K, 99 kPa	869.944 ± 0.23
333.15 K, 99 kPa	866.753 ± 0.23
333.15 K, 100 kPa	866.75 ± 0.29
333.15 K, 2500 kPa	870.11 ± 0.3
333.15 K, 5000 kPa	873.62 ± 0.31
333.15 K, 7500 kPa	876.95 ± 0.32
333.15 K, 10000 kPa	880.01 ± 0.32
333.15 K, 20000 kPa	891.39 ± 0.35
333.15 K, 30000 kPa	901.64 ± 0.37
333.15 K, 40000 kPa	910.95 ± 0.39
333.15 K, 50000 kPa	919.48 ± 0.41
333.15 K, 60000 kPa	927.42 ± 0.42
335.65 K, 99 kPa	863.547 ± 0.23
338.15 K, 99 kPa	860.327 ± 0.24
338.15 K, 100 kPa	860.33 ± 0.29
338.15 K, 2500 kPa	863.95 ± 0.3
338.15 K, 5000 kPa	867.36 ± 0.31
338.15 K, 7500 kPa	870.91 ± 0.32
338.15 K, 10000 kPa	874.16 ± 0.33
338.15 K, 20000 kPa	886.03 ± 0.35
338.15 K, 30000 kPa	896.44 ± 0.38
338.15 K, 40000 kPa	905.99 ± 0.4
338.15 K, 50000 kPa	914.74 ± 0.41
338.15 K, 60000 kPa	922.79 ± 0.42
